# Data reported in article PMC11859264, “Discovery of a Novel Multitarget Analgesic Through an In Vivo-Guided Approach” (Pharmaceuticals, 2025).
# Columns and labels:
# formalin model = assay: Formalin test in mice (primary in vivo screening and ED50); set-up: species or system ICR male mice; conditions: mice, 5 mg/kg intraperitoneal, second phase
# Procedure: For primary screening, the synthesized compounds were administered to mice via intraperitoneal injection at a dose of 5 mg/kg using the formalin model. The percentage inhibition in the second phase, relative to the vehicle control (DMSO/cremophor EL/distilled water = 10:10:80), was calculated.
# Each compound was assessed using four doses (0.1, 1, 5, and 10 mg/kg) by intraperitoneal injection.
# ICR male mice weighing 23–25 g was purchased from Samtako Korea (Osan, Republic of Korea). ICR mice were housed four per cage in a room with 12 h light–dark cycles. The temperature and relative humidity of the room were maintained at 22 ± 2 °C and 50 ± 5%, respectively. Food and water were available ad libitum. The procedures for animal testing were approved by Medifron Animal Care and Use Committees (Approval number; Medifron 2019-9). Efforts were made to minimize animal suffering and to reduce the number of animals used.
# Mice were randomly assigned to five groups (four per group) and single-dose drugs were administered by intraperitoneal injection. The formalin-induced licking paw test was modified from the method described by Dubuisson and Dennis. Each mouse was acclimated to an acrylic observation chamber for at least 30 min before the injection of formalin. Twenty microliters of 2% formalin were injected subcutaneously into the right side of the hind paw. Each mouse was then placed in an individual clear plastic observational chamber (15 × 15 × 15 cm, volume = […] or 3.375 L), and the pain response was recorded for a period of 30 min. The summation of time (in seconds) spent in licking and biting responses of the injected paw during each 5 min block was measured as an indicator of the pain response. The first period (early phase) was recorded 0–5 min after the injection of formalin, and the second period (late phase) was recorded 20–30 min after the injection. The test compound was administered intraperitoneally 30 min before the formalin injection at […]: 0.1, 1, 5, and 10 mg/kg. The vehicle was DMSO/Cremophor EL/distilled water (10/10/80). The data were expressed as the mean ± standard error of the mean (SEM). Statistical analysis was assessed by one-way analysis of variance (ANOVA) with Bonferroni’s post hoc test. Statistical significance was set at p-value < 0.05, with values of p <0.001 considered highly significant.
# Serotonin 5-HT2A = Serotonin 5-HT2A (Homo sapiens, UniProt P28223); assay: Radioligand binding, [3H] Ketanserin, Eurofins; conditions: Serotonin 5-HT2A
# CYP3A4 = CYP3A4 (Homo sapiens, UniProt P08684); assay: Cytochrome P450 (CYP) inhibition assay; conditions: microsomes, pH 7.4
# CYP2C9 = CYP2C9 (Homo sapiens, UniProt P11712); assay: Cytochrome P450 (CYP) inhibition assay; conditions: microsomes, pH 7.4
# CYP2C19 = CYP2C19 (Homo sapiens, UniProt P33261); assay: Cytochrome P450 (CYP) inhibition assay; conditions: microsomes, pH 7.4
# Dopamine D2L = biological target: T1, Dopamine D2L (Homo sapiens, UniProt P14416); assay: Radioligand binding, [3H] Spiperone, Eurofins; conditions: Dopamine D2L
# T1 construct: host or cells: CHO cells
# [1] = biological target: T2, Transporter, Dopamine (DAT) (Homo sapiens, UniProt Q01959); assay: Radioligand binding, [125I] RTI-55, Eurofins; conditions: DAT
# T2 construct: host or cells: CHO-S cells
# Adrenergic α2A = biological target: T3, Adrenergic α2A (Homo sapiens, UniProt P08913); assay: Radioligand binding, [3H] Rauwolscine, Eurofins; conditions: Adrenergic α2A
# T3 sequence (P08913 1-465): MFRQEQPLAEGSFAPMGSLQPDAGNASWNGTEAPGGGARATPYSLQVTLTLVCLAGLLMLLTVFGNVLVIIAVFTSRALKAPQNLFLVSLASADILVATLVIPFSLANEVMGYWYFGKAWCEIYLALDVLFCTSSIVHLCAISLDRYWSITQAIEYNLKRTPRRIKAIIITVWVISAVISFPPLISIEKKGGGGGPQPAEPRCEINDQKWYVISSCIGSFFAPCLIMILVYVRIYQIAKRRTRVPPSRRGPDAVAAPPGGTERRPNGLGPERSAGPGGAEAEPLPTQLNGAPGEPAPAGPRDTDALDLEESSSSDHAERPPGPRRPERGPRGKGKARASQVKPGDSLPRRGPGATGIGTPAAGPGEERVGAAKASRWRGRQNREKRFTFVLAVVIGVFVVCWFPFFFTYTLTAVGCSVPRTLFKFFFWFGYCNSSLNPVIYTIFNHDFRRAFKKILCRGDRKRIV
# T2 sequence (Q01959 whole entry): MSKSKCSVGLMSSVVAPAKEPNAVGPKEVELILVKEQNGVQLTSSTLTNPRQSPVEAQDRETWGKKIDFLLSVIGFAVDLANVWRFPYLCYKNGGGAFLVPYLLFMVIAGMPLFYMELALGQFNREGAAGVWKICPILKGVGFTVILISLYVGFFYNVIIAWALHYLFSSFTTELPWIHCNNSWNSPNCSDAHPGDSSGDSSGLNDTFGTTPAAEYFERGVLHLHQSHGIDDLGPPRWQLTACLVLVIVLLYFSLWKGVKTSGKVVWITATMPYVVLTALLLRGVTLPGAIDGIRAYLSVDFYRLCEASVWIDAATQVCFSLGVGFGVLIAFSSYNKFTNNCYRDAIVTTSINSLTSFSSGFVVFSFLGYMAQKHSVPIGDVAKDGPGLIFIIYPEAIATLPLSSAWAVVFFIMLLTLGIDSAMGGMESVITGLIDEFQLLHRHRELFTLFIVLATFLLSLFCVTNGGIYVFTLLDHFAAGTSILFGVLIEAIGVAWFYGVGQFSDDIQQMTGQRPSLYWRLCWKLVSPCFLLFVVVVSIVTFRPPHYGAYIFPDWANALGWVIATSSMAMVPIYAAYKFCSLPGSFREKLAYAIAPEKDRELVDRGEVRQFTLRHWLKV
# Chain of Serotonin 5-HT2A (P28223 whole entry): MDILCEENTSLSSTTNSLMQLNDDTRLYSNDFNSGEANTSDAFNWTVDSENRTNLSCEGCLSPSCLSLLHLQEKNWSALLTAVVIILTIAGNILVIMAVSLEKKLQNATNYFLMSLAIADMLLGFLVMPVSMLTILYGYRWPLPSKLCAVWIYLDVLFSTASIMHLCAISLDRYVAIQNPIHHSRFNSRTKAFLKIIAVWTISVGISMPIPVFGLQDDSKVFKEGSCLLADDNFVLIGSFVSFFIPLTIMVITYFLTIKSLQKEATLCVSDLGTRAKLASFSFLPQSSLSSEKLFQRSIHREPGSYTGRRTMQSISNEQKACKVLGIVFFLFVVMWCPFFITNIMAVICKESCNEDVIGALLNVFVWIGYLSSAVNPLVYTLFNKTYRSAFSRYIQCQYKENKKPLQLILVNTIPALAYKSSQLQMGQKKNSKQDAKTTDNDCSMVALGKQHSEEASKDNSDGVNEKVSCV
# Chain of CYP2C9 (P11712 whole entry): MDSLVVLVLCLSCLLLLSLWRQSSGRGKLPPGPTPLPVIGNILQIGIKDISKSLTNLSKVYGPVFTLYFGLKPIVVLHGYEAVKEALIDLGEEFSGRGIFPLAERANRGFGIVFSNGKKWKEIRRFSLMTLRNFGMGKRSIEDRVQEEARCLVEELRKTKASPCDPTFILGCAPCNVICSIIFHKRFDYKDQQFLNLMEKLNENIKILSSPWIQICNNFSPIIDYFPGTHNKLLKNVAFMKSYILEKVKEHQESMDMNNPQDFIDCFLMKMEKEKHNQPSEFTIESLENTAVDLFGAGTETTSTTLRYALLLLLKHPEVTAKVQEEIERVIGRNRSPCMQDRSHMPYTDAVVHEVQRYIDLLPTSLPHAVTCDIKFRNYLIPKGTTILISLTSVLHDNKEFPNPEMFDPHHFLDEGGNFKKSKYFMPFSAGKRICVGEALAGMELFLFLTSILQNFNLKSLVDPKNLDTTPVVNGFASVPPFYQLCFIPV
# Chain of CYP3A4 (P08684 whole entry): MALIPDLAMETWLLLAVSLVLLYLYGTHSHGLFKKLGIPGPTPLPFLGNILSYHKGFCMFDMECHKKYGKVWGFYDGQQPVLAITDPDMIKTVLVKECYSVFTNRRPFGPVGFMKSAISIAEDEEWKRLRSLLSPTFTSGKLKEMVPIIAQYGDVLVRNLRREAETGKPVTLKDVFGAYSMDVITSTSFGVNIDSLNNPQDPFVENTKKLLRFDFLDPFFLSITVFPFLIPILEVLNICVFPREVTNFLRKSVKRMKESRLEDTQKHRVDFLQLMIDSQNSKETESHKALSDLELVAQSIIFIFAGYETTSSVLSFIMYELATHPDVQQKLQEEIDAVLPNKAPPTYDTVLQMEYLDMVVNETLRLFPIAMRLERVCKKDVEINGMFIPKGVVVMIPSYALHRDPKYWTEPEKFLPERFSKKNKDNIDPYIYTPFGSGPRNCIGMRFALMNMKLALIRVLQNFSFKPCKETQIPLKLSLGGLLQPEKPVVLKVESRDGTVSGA
# Chain of CYP2C19 (P33261 whole entry): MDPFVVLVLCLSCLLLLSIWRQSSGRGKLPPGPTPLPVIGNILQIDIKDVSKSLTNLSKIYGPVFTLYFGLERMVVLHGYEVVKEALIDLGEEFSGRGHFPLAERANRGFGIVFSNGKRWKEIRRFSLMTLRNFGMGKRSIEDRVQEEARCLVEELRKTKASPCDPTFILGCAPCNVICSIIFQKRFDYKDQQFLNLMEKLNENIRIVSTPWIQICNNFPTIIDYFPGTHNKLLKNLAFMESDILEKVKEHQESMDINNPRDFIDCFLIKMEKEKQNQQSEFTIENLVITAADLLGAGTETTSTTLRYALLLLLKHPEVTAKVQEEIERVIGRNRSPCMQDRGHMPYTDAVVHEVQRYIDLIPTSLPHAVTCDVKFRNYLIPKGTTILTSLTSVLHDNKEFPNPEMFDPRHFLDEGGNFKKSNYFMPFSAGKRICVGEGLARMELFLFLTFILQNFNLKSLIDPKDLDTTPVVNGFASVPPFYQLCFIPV
# T1 sequence (P14416 whole entry): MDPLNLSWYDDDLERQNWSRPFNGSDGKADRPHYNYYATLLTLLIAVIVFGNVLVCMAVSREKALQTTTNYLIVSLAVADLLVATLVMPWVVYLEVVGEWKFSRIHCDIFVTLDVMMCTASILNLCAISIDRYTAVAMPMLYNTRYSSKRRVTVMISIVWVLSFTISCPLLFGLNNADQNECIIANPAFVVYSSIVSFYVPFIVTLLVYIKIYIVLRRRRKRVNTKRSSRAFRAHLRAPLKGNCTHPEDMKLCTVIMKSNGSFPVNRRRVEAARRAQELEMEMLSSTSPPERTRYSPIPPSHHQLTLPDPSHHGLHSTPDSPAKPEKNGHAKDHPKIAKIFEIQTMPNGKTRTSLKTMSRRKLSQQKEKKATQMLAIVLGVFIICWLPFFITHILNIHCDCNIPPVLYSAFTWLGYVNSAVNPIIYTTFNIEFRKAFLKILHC
compound,measurement,setting,value
"N#Cc1ccc2[nH]cc(C(=O)NCCCN3CCN(C(=O)C4COc5ccccc5O4)CC3)c2c1 (stereo not drawn) [Compound 51, 5-Cyano-N-(3-(4-(2,3-dihydrobenzo[b][1,4]dioxine-2-carbonyl)piperazin-1-yl)propyl)-1H-indole-3-carboxamide]",% Inhibition in the second phase of the formalin model relative to vehicle control,formalin model,27.3%
"N#Cc1ccc2[nH]cc(C(=O)NCCN3CCC(c4noc5cc(F)ccc45)CC3)c2c1 [Compound 52, 5-Cyano-N-(2-(4-(6-fluorobenzo[d]isoxazol-3-yl)piperidin-1-yl)ethyl)-1H-indole-3-carboxamide]",% Inhibition in the second phase of the formalin model relative to vehicle control,formalin model,46.7%
"N#Cc1ccc2[nH]cc(C(=O)NCCN3CCC(n4c(=O)[nH]c5cc(Cl)ccc54)CC3)c2c1 [Compound 53, N-(2-(4-(5-Chloro-2-oxo-2,3-dihydro-1H-benzo[d]imidazol-1-yl)piperidin-1-yl)ethyl)-5-cyano-1H-indole-3-carboxamide]",% Inhibition in the second phase of the formalin model relative to vehicle control,formalin model,14.3%
"N#Cc1ccc2[nH]cc(C(=O)NCCCN3CCC(n4c(=O)[nH]c5cc(Cl)ccc54)CC3)c2c1 [Compound 55, N-(3-(4-(5-Chloro-2-oxo-2,3-dihydro-1H-benzo[d]imidazol-1-yl)piperidin-1-yl)propyl)-5-cyano-1H-indole-3-carboxamide]",% Inhibition in the second phase of the formalin model relative to vehicle control,formalin model,24.0%
"O=C(c1ccc(F)cc1)C1CCN(CCn2c(=O)[nH]c3ccccc3c2=O)CC1 [Ketanserin, reference compound]",nH (Hill coefficient),Serotonin 5-HT2A,0.99
CC(=O)N1CCN(c2ccc(OCC3COC(Cn4ccnc4)(c4ccc(Cl)cc4Cl)O3)cc2)CC1 (stereo not drawn) [Ketoconazole],"inhibition at 15 min, 0.1 µM",CYP3A4,68%
same,"inhibition at 15 min, 0.1 µM",CYP2C9,3.2%
same,"inhibition at 15 min, 0.1 µM",CYP2C19,0%
"O=C(CCCN1CCC2(CC1)C(=O)NCN2c1ccccc1)c1ccc(F)cc1 [Spiperone, reference compound]",nH (Hill coefficient),Dopamine D2L,0.71
"Fc1ccc(C(OCCN2CCN(CCCc3ccccc3)CC2)c2ccc(F)cc2)cc1 [Vanoxerine, reference compound]",nH (Hill coefficient),[1],1.01
"COC(=O)[C@@H]1[C@H]2C[C@H]3c4[nH]c5ccccc5c4CCN3C[C@@H]2CC[C@@H]1O [Yohimbine, reference compound]",nH (Hill coefficient),Adrenergic α2A,0.88
"NCC1(CC(=O)O)CCCCC1 [gabapentin, reference compound]",% Inhibition in the second phase of the formalin model relative to vehicle control,formalin model,70.7%
